Reference: patent publication US9956220B2, “Imidazo-pyridazine derivatives as casein kinase 1 δ/ϵ inhibitors” (Bristol-Myers Squibb Company, priority 2014, dated 2018)

Tests used:
CK1ϵ = CK1ϵ (Homo sapiens, UniProt P49674); assay: CK1ϵ kinase assay (Caliper LABCHIP electrophoretic separation of fluoresceinated peptide substrate and product); format: biochemical; settings: 200 pM CK1ϵ, 50 μM ATP, 1.5 μM peptide substrate, 22 hours at room temperature; read-out: CK1ε (IC50)
CK1δ = CK1δ (Homo sapiens, UniProt P48730); assay: CK1δ kinase assay (Caliper LABCHIP electrophoretic separation of fluoresceinated peptide substrate and product); format: biochemical; settings: 200 pM CK1δ, 50 μM ATP, 1.5 μM peptide substrate, 22 hours at room temperature
Chain of CK1δ (P48730 whole entry): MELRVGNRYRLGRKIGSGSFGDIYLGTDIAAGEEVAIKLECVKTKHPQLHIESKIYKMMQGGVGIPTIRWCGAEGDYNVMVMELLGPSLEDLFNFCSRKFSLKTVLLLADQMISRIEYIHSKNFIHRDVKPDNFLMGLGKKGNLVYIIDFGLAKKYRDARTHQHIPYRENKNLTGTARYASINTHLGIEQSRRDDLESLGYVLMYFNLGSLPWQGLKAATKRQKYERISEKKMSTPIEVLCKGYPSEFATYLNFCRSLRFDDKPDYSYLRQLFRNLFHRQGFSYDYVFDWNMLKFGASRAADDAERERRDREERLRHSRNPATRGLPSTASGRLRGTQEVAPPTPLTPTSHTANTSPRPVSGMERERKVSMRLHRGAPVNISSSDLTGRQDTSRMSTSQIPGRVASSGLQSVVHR

Chain of CK1ϵ (P49674 whole entry): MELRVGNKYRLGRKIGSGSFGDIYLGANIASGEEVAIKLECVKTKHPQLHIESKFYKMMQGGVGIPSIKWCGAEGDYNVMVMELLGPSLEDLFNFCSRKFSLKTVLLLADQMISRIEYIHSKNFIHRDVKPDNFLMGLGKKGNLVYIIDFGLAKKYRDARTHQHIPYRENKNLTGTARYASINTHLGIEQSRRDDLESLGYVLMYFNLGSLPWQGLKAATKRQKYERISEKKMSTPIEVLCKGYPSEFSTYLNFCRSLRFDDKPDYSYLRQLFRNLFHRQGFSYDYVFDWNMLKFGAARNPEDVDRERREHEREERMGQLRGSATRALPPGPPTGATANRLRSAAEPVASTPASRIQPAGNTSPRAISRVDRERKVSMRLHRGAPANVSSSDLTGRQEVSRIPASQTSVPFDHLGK

Row | IC50 (CK1ϵ) [nM] | IC50 (CK1δ) [nM] | Structure (SMILES)
1 | 5.3 | 0.7 | O=C(Nc1cn2nc(-c3c(-c4ccc(F)cc4)nn4c3CCC4)ccc2n1)c1cc(F)nc(F)c1 [Example 66, 2,6-Difluoro-N-(6-(2-(4-fluorophenyl)-5,6-dihydro-4H-pyrrolo[1,2-b]pyrazol-3-yl)imidazo[1,2-b]pyridazin-2-yl)isonicotinamide]
2 | 3.6 | 0.4 | O=C(Nc1cn2nc(-c3c(-c4ccc(F)cc4)nn4c3CCC4)ccc2n1)c1ccncc1 [Example 67, N-(6-(2-(4-Fluorophenyl)-5,6-dihydro-4H-pyrrolo[1,2-b]pyrazol-3-yl)imidazo[1,2-b]pyridazin-2-yl) isonicotinamide]
3 | 3.6 | 0.3 | O=C(Nc1cn2nc(-c3c(-c4ccc(F)cc4)nn4c3CCC4)ccc2n1)c1ccccc1 [Example 68, N-(6-(2-(4-Fluorophenyl)-5,6-dihydro-4H-pyrrolo[1,2-b]pyrazol-3-yl)imidazo[1,2-b]pyridazin-2-yl)benzamide]

Second part, the compound before the results:

Row | Structure (SMILES) | IC50 (CK1ϵ) [nM] | IC50 (CK1δ) [nM]
4 | O=C(Nc1cn2nc(-c3c(-c4ccc(F)cc4)noc3C3CCOCC3)ccc2n1)c1ccnc(F)c1 [Example 69, 2-Fluoro-N-(6-(3-(4-fluorophenyl)-5-(tetrahydro-2H-pyran-4-yl)isoxazol-4-yl)imidazo[1,2-b]pyridazin-2-yl)isonicotinamide] | 27.9 | 1.4
5 | O=C(Nc1cn2nc(-c3c(-c4ccc(F)cc4)noc3C3CCOCC3)ccc2n1)c1ccnc(N2CCOCC2)c1 [Example 70, N-(6-(3-(4-Fluorophenyl)-5-(tetrahydro-2H-pyran-4-yl)isoxazol-4-yl)imidazo[1,2-b]pyridazin-2-yl)-2-morpholinoisonicotinamide] | 27.3 | 3.8
6 | O=C(Nc1cn2nc(-c3c(-c4ccc(F)cc4)noc3C3CCOCC3)ccc2n1)c1ccnc(-c2cccnc2)c1 [Example 71, N-(6-(3-(4-Fluorophenyl)-5-(tetrahydro-2H-pyran-4-yl)isoxazol-4-yl)imidazo[1,2-b]pyridazin-2-yl)-[2,3′-bipyridine]-4-carboxamide] | 29 | 2.5
